The record followed here is PubChem BioAssay (NCI).

Some test systems named below: A498 renal; COLO 205 colon; HCC-2998 colon; LOX IMVI melanoma; NCI-H226 lung; OVCAR-8 ovarian; SF-295 CNS; SK-OV-3 ovarian; SNB-75 CNS; UACC-257 melanoma.
Assay in all cases: DTP human tumour cell line panel, 48 h

Molecules are shown by their SMILES. “And” between values parts separate entries of the source, which are not always exact repeats. Identical values can stand only once.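 Grown in 96-well plates, cells were treated for 48 hours with each compound at five concentrations. Insufficient inhibition: endpoint recorded as highest concentration tested. GI50 marks 50% less growth. The concentration for full growth arrest is given as TGI.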

Regarding `COc1ccc(C#Cc2ccc(=O)oc2-c2cc(OC)c(OC)c(OC)c2)cc1O`, the GI50 in the test on A498 renal is 10.1 µM; with COLO 205 colon, 37.3 µM; in the test with HCC-2998 colon, 3.36 µM; with LOX IMVI melanoma it was 12.3 µM; in the test on NCI-H226 lung, greater than 34 µM; in the test with OVCAR-8 ovarian it was 10.6 µM. The GI50 is 4.49 µM in the test on SF-295 CNS, 6.58 µM in the test on SK-OV-3 ovarian, 5.52 µM with SNB-75 CNS and 7.87 µM in the test on UACC-257 melanoma. The TGI in the test on A498 renal was greater than 83.1 µM; in the test with COLO 205 colon, greater than 100 µM; with HCC-2998 colon, 44 µM; in the test with LOX IMVI melanoma, greater than 100 µM; with NCI-H226 lung, greater than 100 µM; with OVCAR-8 ovarian it was greater than 100 µM. Besides, the TGI was greater than 45.2 µM in the test on SF-295 CNS, greater than 83.1 µM in the test on SK-OV-3 ovarian, 27.8 µM in the test on SNB-75 CNS and greater than 100 µM in the test on UACC-257 melanoma.

For `CCN(CC)CCCC(C)Nc1ccnc2cc(Cl)ccc12` (stereo not drawn), the GI50 in the test with A498 renal was greater than 100 µM; in the test with COLO 205 colon it was 50.8 µM; in the test on LOX IMVI melanoma it was 18.4 µM; in the test with NCI-H226 lung, greater than 100 µM; with OVCAR-8 ovarian it was 57.5 µM; with SK-OV-3 ovarian, greater than 100 µM. Further, the GI50 is greater than 100 µM with SNB-75 CNS and 19.8 µM with UACC-257 melanoma. Besides, the TGI in the test with A498 renal is greater than 100 µM; in the test on COLO 205 colon, > 100 µM and 38.7 µM; in the test with HCC-2998 colon, 48.8 µM; in the test with LOX IMVI melanoma it was 48.8 µM and 45 µM; in the test on NCI-H226 lung, greater than 100 µM; with OVCAR-8 ovarian, greater than 100 µM. Further, the TGI in the test on SF-295 CNS is 59.9 µM and > 60.1 µM; in the test on SK-OV-3 ovarian it was greater than 100 µM; in the test on SNB-75 CNS it was greater than 100 µM; with UACC-257 melanoma, 35.7 µM and > 62.1 µM.
